The subject of data set [1] is Coronavirus isolated from a cold (ATCC). In words: Anti-viral activity against a Coronavirus. It counts as cell-based. As to conditions: without light activation. The source says: ZnPor (II) can interact with many macromolecules and may bind to important components of a virus, rendering it unable to infect cells. […] This is due to the high levels of ROSs (Reactive Oxygen Species, e.g., superoxide) produced by activation of the porphyrin and which destroy a wide range of macromolecules (proteins, lipids etc.). […] ZnPor can bind to proteins, which may have accounted for how ZnPor (II) acted, in that it bound to the viral proteins such as the spike protein of Coronaviruses. If the Spike proteins bound to ZnPor (II) then the virus couldn't attach to the host cell binding receptor for the spike proteins. There are relatively few antiviral agents. While there are a number of porphyrins that can inactivate viruses using light activation, ZnPor (II) porphyrin has antiviral activity without light activation.

In a further data set the test system is PsA PA14 biofilms. Kind of data set: PA14 biofilm on polyethylene coupons, LIVE/DEAD stain, CLSM. It counts as cell-based, Pseudomonas aeruginosa. The following applies: ZnPor 25 μg/mL 2 h, then PEV2 (MOI 10:1) 4 h. How it is done: Biofilms were grown on polyethylene coupons in CDC approved bioreactors in MSG media for […]. Overnight media was replaced with PBS and biofilms were treated as follows: (FIG. 19A) Control (no additions), (FIG. 19B) ZnPor (25 μg/mL) for 2 hours, (FIG. 19C) Phage PEV2 (MOI of 10:1) for 4 hours, or (FIG. 19D) ZnPor (25 μg/mL) for 2 hours followed by the addition of Phage PEV2 (MOI of 10:1) for 4 hours. Coupons were gently washed in distilled water and were treated with LIVE/DEAD™ stain. All coupons were imaged using confocal laser scanning […] microscopy (CLSM) at 60×.

Another data set has as its system Listeria monocytogenes. In words: Killing of Listeria inside macrophages. It counts as cell-based. As to conditions: macrophages treated with ZnPor (II) vs control. How it is done: A growing number of bacteria are being discovered as having the ability to enter and grow within human cells. The model bacterium used to test this was: Listeria monocytogenes. This bacterium is well known for its ability to survive inside human cells and using actin tails (sourced from the host cell) to propel themselves out of one cell and into another. The L. monocytogenes bacteria were incubated with macrophages. […] Then macrophages were cracked open and plated on antibiotic plates to get a viable count of the number of cells taken up (control) and compared to macrophages treated with ZnPor (II).

Data set [2] is classed as physicochemical. The text has this:
As used herein, “water soluble” refers to a property wherein a material is miscible in water, or in other words, is a capable of forming a homogenous solution with water at ambient conditions.

Another data set relates to Drosophila melanogaster. As to conditions: flies fed ZnPor (II); Yoho et al. 2014; cited from earlier work.
In another data set the test system is PsA. Kind of data set: Testing for bacterial resistance. It counts as cell-based, Pseudomonas aeruginosa. The text has this: One of the major concerns of developing novel small molecule antimicrobials is the potential for bacteria to develop resistance. […] The mechanism of action and target are believed to explain the absence of resistance. An MBC:MIC ratio of 2 which is what we derived from kill curves, was considered an indication of lack of resistance.

For a further data set, the system named is SA biofilm. Kind of data set: SA biofilm model with bioluminescence reporter. It counts as cell-based, Staphylococcus aureus. The following applies: escalating doses of ZnPor vs PBS. How it is done: (§1) Representative of one experiment.
Biofilm formation was an important defense mechanism utilized by bacteria and was associated with bacterial phenotypes that predict worse clinical outcomes in CF. A biofilm model was deployed using an SA strain with genetically embedded bioluminescence reporter to gauge efficacy of ZnPor against SA biofilm. Plastic plates were coated with bioluminescent SA and treated with escalating doses of ZnPor or PBS. Bioluminescence was measured via spectrophotometer.

Data set [3] relates to Mycobacterium tuberculosis. Kind of data set: Killing of acid fast bacterium. It counts as cell-based. The text has this:
ZnPor (II) is the only porphyrin that kills Gram-positive and Gram-negative bacteria without photoactivation. […] Additionally, ZnPor (II) inactivates the bacteriophage PEV2, a well-studied bacteriophage of Pseudomonas aeruginosa. PEV2 is currently being used in phage therapy in Europe. […] While ZnPor (II) can inactivate phage, at lower concentrations it can act synergistically with bacteriophage PEV2 or the purified genome of PEV2 in remediation of biofilms of PsA. This is referred to as PAS Phage Antibiotic Synergy (PAS) and is of great interest and intense study; as a means to overcome several known limitations of phage-only “Phage Therapy”.

For data set [4], the system named is Human airway epithelial (BEAS2B, 16HBE, CFBE) and alveolar epithelial (A549) cells. Kind of data set: LDH in supernatant of pulmonary cell lines. It counts as cell-based. How it is done:
as §1
Human airway epithelial (BEAS2B, 16HBE, CFBE) and alveolar epithelial (A549) cells were cultured, plated on 12-well plates, serum starved overnight, and treated with increasing doses of ZnPor. Cell culture supernatants were collected after 48 h of treatment, and supernatants were then assayed for lactate dehydrogenase (LDH), a general marker of cell death released into the supernatant after cell lysis.

Data on 1 substance can be found in US11975009B2, “Use of zinc porphyrin as an antimicrobial” (ZNABLE LLC, priority 2022, dated 2024).

As for “meso-5,10,15-tris(N-methyl-4-pyridyl)-20-(pentafluorophenyl)porphyrinatozinc(II), tris-p-toluene sulfonate [ZnPor]”, the viral infection entry in data set [1] is on record as “prevented viral infection”. In addition, the “effect on PA14 cells towards PEV2 phage” value in the data set on PsA PA14 biofilms was “sensitive to PEV2 phage”. Further, the “number of Listeria cells in the macrophages” value in the data set on Listeria monocytogenes is reported as “a log reduction”. Moreover, in [2], the water solubility entry is listed as “water soluble”. For the same substance, the “toxicity to Drosophila” value in the data set on Drosophila melanogaster is listed as “not toxic”. The “colony growth on LB plates” value in the data set on PsA (2×, 4× and 8×MIC concentration of ZnPor with PsA cell) is “No colony growth”. Further, the resistance entry in the data set with PsA (during 8 years of testing) is given as “no resistance was observed”. Moreover, in the data set on SA biofilm, the “biofilm formation by bioluminescence” value was “significantly less biofilm formation”. Further, the killing entry in data set [3] is on record as “effective at killing”. Besides, in data set [4] (16HBE, CFBE, and A549 cells), the LDH dose response result is on record as “dose response of decreased LDH”. The “LDH in cell culture supernatant vs treatment without ZnPor” value in data set [4] (48 h of treatment, increasing doses) is given as “significantly less LDH”.
